Source: patent publication US12364719B2, “Bacillus subtilis strains improving animal performance parameters” (priority 2017, dated 2025)
Like-named read-outs stand apart in the source and are kept apart here.

System: Clostridium perfringens strain 56
Type: in vivo, Male Ross 308 broilers
Settings: for Mean score (NE): 0-6 score

CC1(C)S[C@@H]2[C@H](NC(=O)[C@H](N)c3ccc(O)cc3)C(=O)N2[C@H]1C(=O)O [Amoxicillin]
% NE (birds positive to macroscopic necrotic enteritis lesions) (Day 25, lesion score 2, infected day 19-22): 44%
% NE (birds positive to macroscopic necrotic enteritis lesions) (Day 25 and 26 combined): 29%
Mean score (NE) (Day 25 and 26 combined): 1.315
Mean score (NE) (Day 26): 1.07
% NE (birds positive to macroscopic necrotic enteritis lesions) (Day 26, lesion score 2, infected day 19-22): 14%
